Results: PubChem BioAssay (NCI)
Where “and” joins values, the source holds several entries; their conditions need not be identical. Identical values can stand only once.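 Cells were grown in 96-well plates and exposed to each compound for 48 hours at five concentrations; endpoints were interpolated linearly between bracketing concentrations, or set to the highest concentration if not reached. GI50: concentration for 50% inhibition of growth. TGI: total growth inhibition.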

Columns and labels:
Assay in all cases: inhibition of tumour cell growth, NCI panel, 48 h
A549 NSCLC = system: A549 NSCLC
IGROV1 ovarian = system: IGROV1 ovarian
KM12 colon = system: KM12 colon
M14 melanoma = system: M14 melanoma
MALME-3M melanoma = system: MALME-3M melanoma
MOLT-4 leukemia = system: MOLT-4 leukemia
NCI-H460 lung = system: NCI-H460 lung
RPMI-8226 leukemia = system: RPMI-8226 leukemia
SK-MEL-5 melanoma = system: SK-MEL-5 melanoma
OVCAR-4 ovarian = system: OVCAR-4 ovarian

SMILES | TGI (A549 NSCLC) | TGI (IGROV1 ovarian) | TGI (KM12 colon) | TGI (M14 melanoma) [µM] | TGI (MALME-3M melanoma) [µM] | TGI (MOLT-4 leukemia) [µM] | TGI (NCI-H460 lung) | TGI (RPMI-8226 leukemia) | TGI (SK-MEL-5 melanoma) [µM] | GI50 (A549 NSCLC) [µM] | GI50 (IGROV1 ovarian) [µM] | GI50 (KM12 colon) | GI50 (NCI-H460 lung) [µM] | GI50 (OVCAR-4 ovarian) | TGI (OVCAR-4 ovarian) [µM] | GI50 (RPMI-8226 leukemia) [nM] | GI50 (SK-MEL-5 melanoma) | GI50 (M14 melanoma) [µM] | GI50 (MOLT-4 leukemia) [µM] | GI50 (MALME-3M melanoma) [nM]
COC1(OC)CC2C(=O)N(Cc3ccccc3)C1CC2S(=O)(=O)c1ccccc1 (stereo unspecified) | > 100 µM | > 100 µM | > 100 µM | > 100 | > 100 | > 100 | > 100 µM | > 100 µM | > 100 |  |  |  |  |  |  |  |  |  |  | 
O=C1C=CN(C2OC(CO)C(O)C2O)C(=O)C1 (stereo unspecified) | 625 µM and > 2500 µM | 625 µM and > 2210 µM | 625 µM and > 2500 µM | > 2500 |  | 476 | 625 µM and 569 µM | 496 µM and > 2500 µM | > 2500 | 28.9 | 77 | 22.3 µM and 39.6 µM | 0.728 | > 625 µM and 953 µM | > 2500 | 23100 | > 625 µM and 325 µM |  |  | 
CC12CCc3ccccc3C1=Nc1ccccc12 (stereo unspecified) | > 100 µM | > 100 µM | 91.9 µM | > 100 | > 100 | 58.5 | > 100 µM |  | 30.4 |  |  |  |  |  | > 100 |  |  |  |  | 
O=C(Nc1cccc(C(F)(F)F)c1)c1cccc(NC2=C(Cl)C(=O)N(Cc3ccccc3)C2=O)c1 | > 100 µM | 18.3 µM | > 100 µM | 14.3 |  | > 100 | > 100 µM | 6.51 µM | 38.2 | 17 | 1.92 | 44.8 µM | 8.76 | 52.2 µM | > 100 | 1890 | 18 µM | 3.68 | 2.73 | 
CCOC(=O)CC1=NC(=Nc2cc(Cl)ccc2Cl)SC1 | > 100 µM | > 100 µM | > 100 µM | > 100 | > 100 |  | > 100 µM |  | > 100 |  |  |  |  |  | > 100 |  |  |  |  | 
CC1CCCN(CC(O)CN2CCCc3ccccc32)C1 (stereo unspecified) | > 100 µM | > 100 µM | > 100 µM | > 100 | > 100 | > 100 |  | > 100 µM | > 100 |  |  |  |  |  | > 100 |  |  |  |  | 
CCOC(=O)CNC(=O)CCCn1c(=O)c2c3ccccc3n(C)c2n2nnc(-c3ccccc3)c12 | > 50 µM | 29.9 µM | > 50 µM | > 50 | > 50 | > 50 | > 50 µM | 33.9 µM |  | 32.8 | 8.87 | > 50 µM | > 50 | > 50 µM | > 50 | 10700 |  | 18.7 | > 50 | > 50000
CCOC(=O)c1cc2cc(NC(=O)c3cc4cc([N+](=O)[O-])ccc4n3C)ccc2n1C | 55.6 µM | > 100 µM | > 100 µM | > 100 |  | > 100 | > 100 µM | > 100 µM | > 100 | 21.7 | > 100 | 49 µM | 30.6 |  |  | 49700 | 74 µM | 34.7 | 30.9 | 
COc1ccc(OC)c(-c2cc(-c3ccccc3)nn2-c2ccc(S(N)(=O)=O)cc2)c1 | 42.6 µM | > 100 µM | 21.6 µM | 16.6 |  | > 100 | 77.3 µM | 4.84 µM | 31.3 | 13.1 | 23.3 | 6.93 µM | 11 |  |  | 1930 | 16.5 µM | 5.38 | 6.44 | 
COc1ccc(NC(=O)Nc2ccc(Nc3nc(C)cc(Nc4ccc(C)cc4)n3)cc2)cc1 |  | 3.28 µM |  | 3.72 | 3.58 | 0.75 |  | 1.65 µM | 2.96 |  | 1.71 |  |  | 1.16 µM | 2.55 | 710 | 1.6 µM | 1.77 | 0.257 | 1830
O=C(N=Nc1c(O)[nH]c2c(Cl)cc(Cl)cc12)c1ccncc1 | > 100 µM | > 100 µM | > 100 µM | > 100 | 32.7 | > 100 | > 100 µM |  | 33.4 |  |  |  |  |  | 57.2 |  |  |  |  | 
O=C1NC(=O)C2(CCC(O)C2)c2cc[n+]([O-])cc21 (stereo unspecified) | > 100 µM | > 100 µM | > 100 µM | > 100 | > 100 | > 100 | > 100 µM | > 100 µM |  |  |  |  |  |  | > 100 |  |  |  |  | 
CC(C)=CCC/C(C)=C/CC/C(=C/COP(=O)(OCc1ccc([N+](=O)[O-])o1)N(C)CCCCCl)CC=C(C)C (stereo unspecified) | 24.2 µM | 14.4 µM | 17.1 µM | 10.2 |  | > 100 | 11.8 µM | > 100 µM | 12.1 | 8.66 | 3.39 | 2.98 µM | 3.75 | 11.9 µM | 48.3 | 3560 | 3.96 µM | 2.62 | 4.14 | 
CCc1ccc(/C(C)=N/NC(N)=S)cc1 | > 100 µM | > 100 µM | > 100 µM | > 100 | > 100 | > 100 |  | > 100 µM | > 100 |  |  |  |  |  | > 100 |  |  |  |  | 
NS(=O)(=O)c1ccc(NC(=O)CC(=O)Nc2ccc(S(N)(=O)=O)cc2)cc1 | > 100 µM | > 100 µM |  | > 100 | > 100 | > 100 |  | > 100 µM | > 100 |  |  |  |  |  | > 100 |  |  |  |  | 
c1ccc2cc(OCC3CO3)c(OCC3CO3)cc2c1 (stereo unspecified) | 30 µM | 11.1 µM | 26.7 µM | 13.3 | 36.5 | 16.5 | 15.8 µM | 9.8 µM | 21.2 |  |  |  |  |  |  |  |  |  |  | 
Cc1ccc(S(=O)(=O)NC(CCC(=O)Nc2ccccc2)C(=O)Nc2ccccc2)cc1 (stereo unspecified) | 1.76 µM |  |  | 3.62 | 2.51 | > 100 |  | 1.58 µM | 0.656 | 0.319 |  |  |  |  |  | 309 | 0.226 µM | 0.404 | 0.375 | 745
O=C(/C=C/c1c(O)ccc2ccccc12)c1cccc2ccccc12 | > 100 µM | > 100 µM | > 100 µM | > 100 | > 100 | > 100 | > 100 µM | > 78 µM | > 100 |  |  |  |  |  |  |  |  |  |  | 
